Experimental data taken from patent publication US20240287138A1, “CYCLIC PEPTIDES FOR INHIBITING TNF RECEPTOR 1 ACTIVITY” (Merck Sharp & Dohme LLC, priority 2023, published 2024).
Numbered stars: 1 amine (or outer) side, 2 acyl side, 3 side chain; on linkers, the order of the positions; unused ones are H or OH. Bridge positions count the residues as written; N and C are the ends. Square brackets hold non-standard residues; d marks the D form. Peptide text beside a SMILES is read from it. Trp(βS-Me,7-OMe) = COc1cccc2c([C@H](C)[C@H](N)C(=O)O)c[nH]c12; Trp(7-CN) = N#Cc1cccc2c(C[C@H](N)C(=O)O)c[nH]c12; Trp(7-Cl) = N[C@@H](Cc1c[nH]c2c(Cl)cccc12)C(=O)O; Phe(4-CONH2) = NC(=O)c1ccc(C[C@H](N)C(=O)O)cc1; Phe(4-COOH) = N[C@@H](Cc1ccc(C(=O)O)cc1)C(=O)O; 4Pal(3S-Me) = C[C@@H](c1ccncc1)[C@H](N)C(=O)O; Trp(7-aza) = N[C@@H](Cc1c[nH]c2ncccc12)C(=O)O; αMeW = C[C@](N)(Cc1c[nH]c2ccccc12)C(=O)O; X1 = O=C([C@@H]1CC[C@H](N[*:1])C1)[*:2]; 4Pal = N[C@@H](Cc1ccncc1)C(=O)O; Gly(cBu) = N[C@H](C(=O)O)C1CCC1; NMeE = CN[C@@H](CCC(=O)O)C(=O)O; dHyp = O=C(O)[C@H]1C[C@H](O)CN1; Ahp(2) = CCCCC[C@H](N)C(=O)O; hSer = N[C@@H](CCO)C(=O)O; αMeS = C[C@](N)(CO)C(=O)O; Nle = CCCC[C@H](N)C(=O)O; Sar = CNCC(=O)O

Assays:
[1] = biological target: T1, TNFα-induced NF-κB signal transduction pathway (TNFR1 signaling) in THP-1 cells (Homo sapiens, UniProt P19438); assay: THP-1 Lucia NF-κB reporter cell assay, inhibition of TNFα-induced NF-κB signaling; type: cell-based; settings: THP-1 NF-κB Lucia reporter cells, 10 ng/mL TNFα, 16-18 h, secreted luciferase; read-out: THP-1 IC50
T1 sequence (P19438 30-455): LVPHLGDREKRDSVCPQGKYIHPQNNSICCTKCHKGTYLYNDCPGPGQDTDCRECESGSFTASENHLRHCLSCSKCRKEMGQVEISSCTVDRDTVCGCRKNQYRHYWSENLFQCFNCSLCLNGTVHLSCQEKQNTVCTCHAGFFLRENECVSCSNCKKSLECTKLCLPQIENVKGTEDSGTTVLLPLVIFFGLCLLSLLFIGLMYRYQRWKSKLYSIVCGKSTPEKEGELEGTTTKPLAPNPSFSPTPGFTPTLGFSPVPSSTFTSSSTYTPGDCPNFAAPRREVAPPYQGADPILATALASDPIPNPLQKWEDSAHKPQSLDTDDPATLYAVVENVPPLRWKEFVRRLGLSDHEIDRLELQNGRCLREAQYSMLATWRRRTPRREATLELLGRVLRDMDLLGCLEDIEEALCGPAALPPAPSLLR
Method in brief: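 IC50 from a 4-parameter logistic fit of secreted luciferase luminescence (QUANTI-Luc), normalised to min/max controls. Reporter THP-1 cells were exposed to peptides for 1 h at 37 °C before 10 ng/mL TNFα (final) was added overnight (16–18 h).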

[2] = biological target: T2, human soluble TNFR1 (sTNFR1) (Homo sapiens, UniProt P19438); assay: Human sTNFR1-peptide displacement assay (LanthaScreen Eu TR-FRET binding assay)
T2 construct: made in house; host or cells: Sf21 (baculovirus)
T2 sequence (P19438 with tags, fused parts or gaps): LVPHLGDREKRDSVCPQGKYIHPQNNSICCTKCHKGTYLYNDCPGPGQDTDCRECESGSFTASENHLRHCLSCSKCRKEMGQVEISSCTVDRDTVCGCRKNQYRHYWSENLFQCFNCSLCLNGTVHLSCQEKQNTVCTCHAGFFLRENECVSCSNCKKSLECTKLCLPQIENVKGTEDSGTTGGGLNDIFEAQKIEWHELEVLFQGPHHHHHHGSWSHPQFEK
Method in brief: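 Readout is the 665/615 nm TR-FRET ratio (Eu anti-His donor, streptavidin-Alexa647 acceptor), normalized to DMSO and saturating displacer, fit by Morrison-based five-parameter logistic for Kd^app. His-tagged sTNFR1 (1-211) prebound to 100 nM biotinylated peptide SEQ ID NO.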

CCCC[C@@H]1NC(=O)CSC[C@@H](C(N)=O)NC(=O)[C@](C)(Cc2c[nH]c3ccccc23)NC(=O)CN(C)C(=O)[C@H](Cc2ccc(O)cc2)NC(=O)[C@H](Cc2ccc(C(=O)O)cc2)NC(=O)[C@](C)(CO)NC(=O)[C@H](Cc2c[nH]c3c(Cl)cccc23)NC(=O)[C@H](Cc2ccncc2)NC(=O)[C@H](CC(N)=O)NC(=O)[C@H](CCC(=O)O)N(C)C(=O)[C@H](Cc2c[nH]c3ncccc23)NC(=O)[C@H](C2CCC2)NC(=O)[C@H](Cc2ccncc2)NC1=O [SEQ ID NO. 56] ({CH2CO}-[Nle][4Pal][Gly(cBu)][Trp(7-aza)][NMeE]N[4Pal][Trp(7-Cl)][αMeS][Phe(4-COOH)]Y[Sar][αMeW]C-NH2; thioether N-14)
IC50 [1]: 11 nM
Kd [2]: 2 nM

CCCCC[C@@H]1NC(=O)[C@@H]2CC[C@@H](C2)NC(=O)[C@H]([C@@H](C)c2c[nH]c3c(OC)cccc23)NC(=O)CN(C)C(=O)[C@H](Cc2ccc(C(N)=O)cc2)NC(=O)[C@H](Cc2ccc(C(N)=O)cc2)NC(=O)[C@](C)(CO)NC(=O)[C@H](Cc2c[nH]c3c(C#N)cccc23)NC(=O)[C@H](Cc2ccc(C(=O)O)cc2)NC(=O)[C@H](CC(N)=O)NC(=O)[C@H]2C[C@H](O)CN2C(=O)[C@H](Cc2c[nH]c3ccccc23)NC(=O)[C@H](CCO)NC(=O)[C@H]([C@@H](C)c2ccncc2)NC1=O [SEQ ID NO. 50] (cyclo([Ahp(2)][4Pal(3S-Me)][hSer]W[dHyp]N[Phe(4-COOH)][Trp(7-CN)][αMeS][Phe(4-CONH2)][Phe(4-CONH2)][Sar][Trp(βS-Me,7-OMe)][X1]))
IC50 [1]: 0.9 nM
Kd [2]: 0.2 nM
